According to PMC4138103 (PLoS ONE, 2014):
Read-outs that look alike come from different tables or passages of the source.

Tests used:
[1] = cited from earlier work
human TTR = target: T1, human TTR (Homo sapiens, UniProt P02766); conditions: ref Hamers et al. 2011, cited from earlier work
T1 construct: purchased Sigma Aldrich

Sprague-Dawley rats [2] = experiment: Bone biomechanics, three-point bending test of tibial shaft; format: in vivo, Rattus norvegicus; design: key to Dose response: Biomechanics, diaphysis, Yield Force: D: significant dose response (for results, see Table 2); T: significant trend; conditions: for Emax: Rattus norvegicus; for F yield, CED / F yield, CED-L: total dose based
Method: For biomechanical testing hind limbs were defrosted and tibial shafts tested with a three-point bending test using a custom made testing apparatus, [34]. Each bone was placed on a support with a span length of 13 mm and bending load was applied with a constant speed of 0.155 mm/sec until failure. The breaking force, bending stiffness and yield force were defined from load-displacement data. Stiffness was calculated as the slope of the linear part of load-displacement curve. Yield force was defined as a corresponding force where the fit for stiffness separated from the measured load-displacement curve. The breaking force was defined as bending load at maximum. Corresponding to these forces also both failure and yield deformations were evaluated.
(§1) Data were also analyzed using the BMD method, which is based on dose-response modeling of the full data set using a nested family of exponential and Hill models. The analyses were done on data of males and females combined, using sex as a covariate. […] In that case, different Critical Effect Doses (CEDs) and CEDs at the lowest bound of the confidence interval (CED-L) were generated for each sex. If no difference between sexes is detected, a CED and CED-Ls for the combined data is generated. However, this was also done if the curve fits are close, and separate analyses for males and females were then performed manually. CEDs and CED-Ls were calculated at the predefined Critical Effect Size (CES) of 5% (EFSA standard) or 10%.

Sprague-Dawley rats [3] = experiment: Open field test for locomotor activity; format: in vivo, Rattus norvegicus; conditions: for Emax: Rattus norvegicus; for Habituation, distance, CED / Habituation, distance, CED-L / Habituation, time, CED / Habituation, time, CED-L / Percent distance in inner zone, day 24, CED / Percent distance in inner zone, day 24, CED-L / Percent time in inner zone, day 24, CED / Percent time in inner zone, day 24, CED-L: total dose based
Method: During the last 5 days of the study (days 24–28), rats were tested for locomotor activity in an octagonal open field (diameter 75 cm). The behavior was recorded on videotapes and automatically evaluated with a program for behavioral analyses (Ethovision, Noldus, NL). Each rat was tested for 5 min on each of the 5 days to allow the examination of habituation. Sequence of the rats to be tested was varied according to a permutation scheme to exclude a systematic influence of daytime on the outcome. For analyses, the area of the open field was divided in an inner zone (diameter 50 cm) and an outer ring (width 12.5 cm). Total distance moved during the recording period, distance moved in the inner zone of the open field, distance moved in outer zone, time in inner zone, and time in outer zone were extracted as parameters from the recordings.
as §1

[4] = F, CES 5%, model E2, adipose tissue concentration based
[5] = F, CES 10%, model E2, adipose tissue concentration based
[6] = females, adipose tissue concentration based
[7] = tibia, females, total dose 3 mg/kg bw
[8] = tibia, females, total dose 10 mg/kg bw
[9] = tibia, females, total dose 30 mg/kg bw
[10] = tibia, females, total dose 100 mg/kg bw
[11] = tibia, females, total dose 300 mg/kg bw
[12] = tibia, females, total dose 1000 mg/kg bw
[13] = tibia, females, total dose 1700 mg/kg bw
[14] = tibia, males, total dose 3 mg/kg bw
[15] = tibia, males, total dose 10 mg/kg bw
[16] = tibia, males, total dose 30 mg/kg bw
[17] = tibia, males, total dose 100 mg/kg bw
[18] = tibia, males, total dose 300 mg/kg bw
[19] = tibia, males, total dose 1000 mg/kg bw
[20] = tibia, males, total dose 1700 mg/kg bw
[21] = F, CES 5%, model E4, adipose tissue concentration based
[22] = F, CES 10%, model E4, adipose tissue concentration based
[23] = females, CES 5%, adipose tissue concentration based

## Clc1cc(Cl)c(-c2cc(Cl)c(Cl)c(Cl)c2Cl)cc1Cl [PCB 180, 2,2′,3′,4,4′,5,5′-heptachlorobiphenyl]
[1]; adult humans, estimated
  Elimination half-life: 11.5 years
[1]; early adolescent children
  Elimination half-life: 9.8 years
Human TTR; @10000 nM
  T4 displacement, Pilot experiment: 27% T4 displacement @10000 nM
Human TTR; TTR binding
  IC50: > 15 µM
Sprague-Dawley rats [2]; [4]
  CED, F yield: 2860 µg/g lipid
  CED-L, F yield: 1647 µg/g lipid
Sprague-Dawley rats [2]; [5]
  CED, F yield: 5880 µg/g lipid
  CED-L, F yield: 3384 µg/g lipid
Sprague-Dawley rats [2]; F, model E2, controls vs high dose according to the fitted model, read-out: Maximum response, F yield
  Emax: -18.3%
Sprague-Dawley rats [2]; females, controls vs high dose, fitted model, read-out: F yield, Maximum response
  Emax: -16.7%
Sprague-Dawley rats [2]; females, CES 5%
  F yield, CED: 476 mg/kg bw
  F yield, CED-L: 266 mg/kg bw
Sprague-Dawley rats [2]; females, CES 10%
  F yield, CED: 978 mg/kg bw
  F yield, CED-L: 547 mg/kg bw
Sprague-Dawley rats [2]; [6]
  Yield force of tibial shaft, CED: 2860 µg/g lipid
Sprague-Dawley rats [2]; [7]
  Biomechanics, diaphysis: Ultimate Deformation: 0.601 mm
  Biomechanics, diaphysis: Ultimate Force: 108 N
  Biomechanics, diaphysis: Yield Deformation: 0.291 mm
  Biomechanics, diaphysis: Yield Force: 72.2 N
Sprague-Dawley rats [2]; [8]
  Biomechanics, diaphysis: Ultimate Deformation: 0.634 mm
  Biomechanics, diaphysis: Ultimate Force: 106 N
  Biomechanics, diaphysis: Yield Deformation: 0.295 mm
  Biomechanics, diaphysis: Yield Force: 65.9 N
Sprague-Dawley rats [2]; [9]
  Biomechanics, diaphysis: Ultimate Deformation: 0.763 mm
  Biomechanics, diaphysis: Ultimate Force: 112 N
  Biomechanics, diaphysis: Yield Deformation: 0.378 mm
  Biomechanics, diaphysis: Yield Force: 81.2 N
Sprague-Dawley rats [2]; [10]
  Biomechanics, diaphysis: Ultimate Deformation: 0.622 mm
  Biomechanics, diaphysis: Ultimate Force: 100 N
  Biomechanics, diaphysis: Yield Deformation: 0.360 mm
  Biomechanics, diaphysis: Yield Force: 79.7 N
Sprague-Dawley rats [2]; [11]
  Biomechanics, diaphysis: Ultimate Deformation: 0.640 mm
  Biomechanics, diaphysis: Ultimate Force: 104 N
  Biomechanics, diaphysis: Yield Deformation: 0.341 mm
  Biomechanics, diaphysis: Yield Force: 76.7 N
Sprague-Dawley rats [2]; [12]
  Biomechanics, diaphysis: Ultimate Deformation: 0.645 mm
  Biomechanics, diaphysis: Ultimate Force: 105 N
  Biomechanics, diaphysis: Yield Deformation: 0.316 mm
  Biomechanics, diaphysis: Yield Force: 71.4 N
Sprague-Dawley rats [2]; [13]
  Biomechanics, diaphysis: Ultimate Deformation: 0.691 mm
  Biomechanics, diaphysis: Ultimate Force: 109 N
  Biomechanics, diaphysis: Yield Deformation: 0.276 mm
  Biomechanics, diaphysis: Yield Force: 60.4 N
Sprague-Dawley rats [2]; tibia, females, total doses 0-1700 mg/kg bw
  Dose response: Biomechanics, diaphysis, Yield Force: D
Sprague-Dawley rats [2]; [14]
  Biomechanics, diaphysis: Ultimate Deformation: 0.888 mm
  Biomechanics, diaphysis: Ultimate Force: 123 N
  Biomechanics, diaphysis: Yield Deformation: 0.423 mm
  Biomechanics, diaphysis: Yield Force: 84.8 N
Sprague-Dawley rats [2]; [15]
  Biomechanics, diaphysis: Ultimate Deformation: 0.727 mm
  Biomechanics, diaphysis: Ultimate Force: 131 N
  Biomechanics, diaphysis: Yield Deformation: 0.333 mm
  Biomechanics, diaphysis: Yield Force: 71.9 N
Sprague-Dawley rats [2]; [16]
  Biomechanics, diaphysis: Ultimate Deformation: 0.704 mm
  Biomechanics, diaphysis: Ultimate Force: 122 N
  Biomechanics, diaphysis: Yield Deformation: 0.346 mm
  Biomechanics, diaphysis: Yield Force: 78.4 N
Sprague-Dawley rats [2]; [17]
  Biomechanics, diaphysis: Ultimate Deformation: 0.786 mm
  Biomechanics, diaphysis: Ultimate Force: 130 N
  Biomechanics, diaphysis: Yield Deformation: 0.395 mm
  Biomechanics, diaphysis: Yield Force: 87.0 N
Sprague-Dawley rats [2]; [18]
  Biomechanics, diaphysis: Ultimate Deformation: 0.758 mm
  Biomechanics, diaphysis: Ultimate Force: 132 N
  Biomechanics, diaphysis: Yield Deformation: 0.295 mm
  Biomechanics, diaphysis: Yield Force: 69.0 N
Sprague-Dawley rats [2]; [19]
  Biomechanics, diaphysis: Ultimate Deformation: 0.772 mm
  Biomechanics, diaphysis: Ultimate Force: 120 N
  Biomechanics, diaphysis: Yield Deformation: 0.446 mm
  Biomechanics, diaphysis: Yield Force: 93.0 N
Sprague-Dawley rats [2]; [20]
  Biomechanics, diaphysis: Ultimate Deformation: 0.769 mm
  Biomechanics, diaphysis: Ultimate Force: 118 N
  Biomechanics, diaphysis: Yield Deformation: 0.346 mm
  Biomechanics, diaphysis: Yield Force: 81.2 N
Sprague-Dawley rats [3]; [4]
  CED, Habituation, distance: 1340 µg/g lipid
  CED, Habituation, time: 1130 µg/g lipid
  CED-L, Habituation, distance: 865 µg/g lipid
  CED-L, Habituation, time: 739 µg/g lipid
Sprague-Dawley rats [3]; [21]
  CED, Percent distance in inner zone, day 24: 4.12 µg/g lipid
  CED, Percent time in inner zone, day 24: 1.55 µg/g lipid
  CED-L, Percent distance in inner zone, day 24: 1.16 µg/g lipid
  CED-L, Percent time in inner zone, day 24: 0.525 µg/g lipid
Sprague-Dawley rats [3]; [5]
  CED, Habituation, distance: 2740 µg/g lipid
  CED, Habituation, time: 2320 µg/g lipid
  CED-L, Habituation, distance: 1777 µg/g lipid
  CED-L, Habituation, time: 1518 µg/g lipid
Sprague-Dawley rats [3]; [22]
  CED, Percent distance in inner zone, day 24: 8.69 µg/g lipid
  CED, Percent time in inner zone, day 24: 3.17 µg/g lipid
  CED-L, Percent distance in inner zone, day 24: 2.423 µg/g lipid
  CED-L, Percent time in inner zone, day 24: 1.07 µg/g lipid
Sprague-Dawley rats [3]; 576 h, F, model E4, controls vs high dose according to the fitted model, read-out: Maximum response, Percent distance in inner zone, day 24
  Emax: 53%
Sprague-Dawley rats [3]; 576 h, F, model E4, controls vs high dose according to the fitted model, read-out: Maximum response, Percent time in inner zone, day 24
  Emax: 111%
Sprague-Dawley rats [3]; 576 h, females, controls vs high dose, fitted model, read-out: Percent distance in inner zone, day 24, Maximum response
  Emax: 53%
Sprague-Dawley rats [3]; 576 h, females, controls vs high dose, fitted model, read-out: Percent time in inner zone, day 24, Maximum response
  Emax: 107%
Sprague-Dawley rats [3]; F, model E2, controls vs high dose according to the fitted model, read-out: Maximum response, Habituation, distance
  Emax: -35.2%
Sprague-Dawley rats [3]; F, model E2, controls vs high dose according to the fitted model, read-out: Maximum response, Habituation, time
  Emax: -40.1%
Sprague-Dawley rats [3]; females, controls vs high dose, fitted model, read-out: Habituation, distance, Maximum response
  Emax: -33.2%
Sprague-Dawley rats [3]; females, controls vs high dose, fitted model, read-out: Habituation, time, Maximum response
  Emax: -37.7%
Sprague-Dawley rats [3]; [23]
  Percentage of distance moved in inner zone, day 24, CED: 4.12 µg/g lipid
  Percentage of time in inner zone, day 24, CED: 1.55 µg/g lipid
Sprague-Dawley rats [3]; females, CES 5%
  Habituation, distance, CED: 216 mg/kg bw
  Habituation, distance, CED-L: 138 mg/kg bw
  Habituation, time, CED: 184 mg/kg bw
  Habituation, time, CED-L: 118 mg/kg bw
  Percent distance in inner zone, day 24, CED: 0.87 mg/kg bw
  Percent distance in inner zone, day 24, CED-L: 0.25 mg/kg bw
  Percent time in inner zone, day 24, CED: 0.35 mg/kg bw
  Percent time in inner zone, day 24, CED-L: 0.11 mg/kg bw
Sprague-Dawley rats [3]; females, CES 10%
  Habituation, distance, CED: 444 mg/kg bw
  Habituation, distance, CED-L: 283 mg/kg bw
  Habituation, time, CED: 378 mg/kg bw
  Habituation, time, CED-L: 243 mg/kg bw
  Percent distance in inner zone, day 24, CED: 1.84 mg/kg bw
  Percent distance in inner zone, day 24, CED-L: 0.53 mg/kg bw
  Percent time in inner zone, day 24, CED: 0.71 mg/kg bw
  Percent time in inner zone, day 24, CED-L: 0.23 mg/kg bw
Sprague-Dawley rats [3]; [6]
  Habituation, percentage of distance moved, CED: 1340 µg/g lipid
  Habituation, time in inner zone, CED: 1130 µg/g lipid
  Spontanous locomotor activity, CED-L: 525 ng/g lipid
Sprague-Dawley rats [3]; females, critical effect for risk characterization
  Altered open field behavior, CED-L: 0.525 µg/g lipid
Sprague-Dawley rats [3]; males
  Open field behavior, dose-response relations: No significant dose-response relations
